Results as given in ChEMBL document CHEMBL1201862, “PubChem BioAssay data set” (2004).
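1) Cells in 96-well plates. 2) Compound, 48 h, 5 concentrations. 3) Linear interpolation between surrounding doses. 4) Unreached endpoint = highest concentration. GI50 is the concentration that inhibits growth by half.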 Activity calls are given as the source filed them. No stated cut-off is given here; in the data, active = GI50 up to about 1.1 µM and inactive = higher.

Assays:
Test in all cases: inhibition of tumour cell growth, NCI panel, 48 h
SN12C = tested on: SN12C
NCI-H23 = tested on: NCI-H23
M19-MEL = tested on: M19-MEL
HOP-18 = tested on: HOP-18
RXF 393 = tested on: RXF 393
SK-OV-3 = tested on: SK-OV-3
HL-60 = tested on: HL-60
SF-539 = tested on: SF-539
Malme-3M = tested on: Malme-3M
SNB-78 = tested on: SNB-78
NCI-H460 = tested on: NCI-H460
KM12 = tested on: KM12
HCT-15 = tested on: HCT-15
HOP-62 = tested on: HOP-62
OVCAR-8 = tested on: OVCAR-8
M14 = tested on: M14
SR = tested on: SR
U-251 = tested on: U-251
HCT-116 = tested on: HCT-116
MOLT-4 = tested on: MOLT-4
COLO 205 = tested on: COLO 205
786-0 = tested on: 786-0
ACHN = tested on: ACHN
SF-268 = tested on: SF-268
DLD-1 = tested on: DLD-1
LOX IMVI = tested on: LOX IMVI
NCI-H226 = tested on: NCI-H226
SW-620 = tested on: SW-620
K562 = tested on: K562
UACC-62 = tested on: UACC-62
OVCAR-4 = tested on: OVCAR-4
DMS-114 = tested on: DMS-114
OVCAR-3 = tested on: OVCAR-3
CAKI-1 = tested on: CAKI-1
UACC-257 = tested on: UACC-257
HOP-92 = tested on: HOP-92
A549 = tested on: A549
KM-20L2 = tested on: KM-20L2
HT-29 = tested on: HT-29
OVCAR-5 = tested on: OVCAR-5
UO-31 = tested on: UO-31
CCRF-CEM = tested on: CCRF-CEM
SK-MEL-28 = tested on: SK-MEL-28
EKVX = tested on: EKVX
SF-295 = tested on: SF-295
LXFL 529 = tested on: LXFL 529
HCC 2998 = tested on: HCC 2998
SNB-19 = tested on: SNB-19
SK-MEL-2 = tested on: SK-MEL-2
IGROV-1 = tested on: IGROV-1
RPMI-8226 = tested on: RPMI-8226
SNB-75 = tested on: SNB-75
A498 = tested on: A498
DMS-273 = tested on: DMS-273
TK-10 = tested on: TK-10
NCI-H522 = tested on: NCI-H522
SK-MEL-5 = tested on: SK-MEL-5
BT-549 = tested on: BT-549
PC-3 = tested on: PC-3
MDA-MB-435 = tested on: MDA-MB-435
MCF7 = tested on: MCF7
DU-145 = tested on: DU-145
MDA-MB-231 = tested on: MDA-MB-231
Hs-578T = tested on: Hs-578T
T47D = tested on: T47D

Measured: GI50

COc1ccc(NC(=O)CCc2cc(-c3ccc(O)c(OC)c3)nc(NC#N)n2)cc1
inactive: SN12C > 100 µM | NCI-H23 > 100 µM | M19-MEL > 100 µM | HOP-18 > 100 µM | RXF 393 > 100 µM | SK-OV-3 > 100 µM | HL-60 > 100 µM | SF-539 > 100 µM | Malme-3M > 100 µM | SNB-78 > 100 µM | NCI-H460 > 100 µM | KM12 > 100 µM | HOP-62 > 100 µM | OVCAR-8 > 100 µM | M14 > 100 µM | SR > 100 µM | U-251 > 100 µM | HCT-116 > 100 µM | MOLT-4 > 100 µM | COLO 205 > 100 µM | 786-0 > 100 µM | ACHN > 100 µM | SF-268 > 100 µM | DLD-1 > 100 µM | LOX IMVI > 100 µM | NCI-H226 > 100 µM | SW-620 > 100 µM | K562 > 100 µM | UACC-62 > 100 µM | OVCAR-4 > 100 µM | DMS-114 > 100 µM | OVCAR-3 > 100 µM | CAKI-1 > 100 µM | UACC-257 > 100 µM | HOP-92 > 100 µM | A549 > 100 µM | KM-20L2 > 100 µM | HT-29 > 100 µM | OVCAR-5 > 100 µM | UO-31 > 100 µM | CCRF-CEM > 100 µM | SK-MEL-28 > 100 µM | EKVX > 100 µM | SF-295 > 100 µM | LXFL 529 > 100 µM | HCC 2998 > 100 µM | SNB-19 > 100 µM | SK-MEL-2 > 100 µM | IGROV-1 > 100 µM
> 100 µM: HCT-15

Cc1cc(O)nc(CNC(=O)c2cccc(C(=O)NCc3cc(O)nc(C)n3)c2)n1
inactive: RPMI-8226 > 100 µM | SN12C > 100 µM | NCI-H23 > 100 µM | M19-MEL > 100 µM | HOP-18 68.5 µM | RXF 393 > 100 µM | SNB-75 > 100 µM | SK-OV-3 > 100 µM | A498 > 100 µM | HL-60 > 100 µM | SF-539 > 100 µM | Malme-3M > 100 µM | SNB-78 > 100 µM | NCI-H460 > 100 µM | KM12 > 100 µM | HOP-62 > 100 µM | OVCAR-8 > 100 µM | M14 > 100 µM | U-251 > 100 µM | HCT-116 > 100 µM | DMS-273 > 100 µM | MOLT-4 > 100 µM | COLO 205 > 100 µM | 786-0 > 100 µM | ACHN > 100 µM | TK-10 > 100 µM | SF-268 > 100 µM | DLD-1 > 100 µM | LOX IMVI > 100 µM | NCI-H226 > 100 µM | SW-620 > 100 µM | K562 > 100 µM | UACC-62 > 100 µM | OVCAR-4 > 100 µM | DMS-114 > 100 µM | OVCAR-3 > 100 µM | UACC-257 > 100 µM | HOP-92 > 100 µM | A549 > 100 µM | KM-20L2 > 100 µM | HT-29 > 100 µM | OVCAR-5 > 100 µM | UO-31 > 100 µM | CCRF-CEM > 100 µM | SK-MEL-28 > 100 µM | EKVX > 100 µM | NCI-H522 > 100 µM | SF-295 > 100 µM | LXFL 529 > 100 µM | HCC 2998 > 100 µM | SNB-19 > 100 µM | SK-MEL-2 > 100 µM | SK-MEL-5 > 100 µM | IGROV-1 > 100 µM
> 100 µM: HCT-15

CCN(CC)C(=O)N1CCN(C=S)CC1
inactive: SN12C > 100 µM | NCI-H23 > 100 µM | M19-MEL > 100 µM | HOP-18 > 100 µM | RXF 393 > 100 µM | SNB-75 > 100 µM | SK-OV-3 > 100 µM | A498 > 100 µM | HL-60 > 100 µM | SF-539 > 100 µM | Malme-3M > 100 µM | SNB-78 > 100 µM | NCI-H460 > 100 µM | KM12 > 100 µM | HOP-62 > 100 µM | OVCAR-8 > 100 µM | M14 > 100 µM | SR > 100 µM | U-251 > 100 µM | HCT-116 > 100 µM | DMS-273 > 100 µM | MOLT-4 > 100 µM | COLO 205 > 100 µM | 786-0 > 100 µM | ACHN > 100 µM | TK-10 > 100 µM | SF-268 > 100 µM | DLD-1 > 100 µM | LOX IMVI > 100 µM | NCI-H226 > 100 µM | SW-620 > 100 µM | K562 > 100 µM | UACC-62 > 100 µM | OVCAR-4 > 100 µM | DMS-114 > 100 µM | OVCAR-3 > 100 µM | UACC-257 > 100 µM | A549 > 100 µM | KM-20L2 > 100 µM | HT-29 > 100 µM | OVCAR-5 > 100 µM | UO-31 > 100 µM | CCRF-CEM > 100 µM | SK-MEL-28 > 100 µM | EKVX > 100 µM | NCI-H522 > 100 µM | LXFL 529 > 100 µM | HCC 2998 > 100 µM | SNB-19 > 100 µM | SK-MEL-2 > 100 µM | SK-MEL-5 > 100 µM | IGROV-1 > 100 µM
> 100 µM: HCT-15

Cc1cc(O)nc(NN2C(Cl)C(=O)C2c2ccc(O)cc2)n1 (configuration not stated)
4.31 µM: HCT-15
inactive: RPMI-8226 2.22 µM | SN12C 11.2 µM | NCI-H23 9.62 µM | M19-MEL 10.5 µM | BT-549 9.1 µM | HOP-18 14.6 µM | RXF 393 4.26 µM | SNB-75 1.87 µM | SK-OV-3 11.3 µM | A498 9.75 µM | HL-60 2.79 µM | SF-539 8.93 µM | Malme-3M 14.4 µM | SNB-78 5.87 µM | NCI-H460 4.8 µM | KM12 8.63 µM | HOP-62 6.17 µM | OVCAR-8 12.6 µM | M14 11.4 µM | SR 3.08 µM | U-251 5.4 µM | HCT-116 4.81 µM | DMS-273 5.32 µM | MOLT-4 5.33 µM | COLO 205 18.7 µM | 786-0 5.14 µM | ACHN 8.07 µM | TK-10 14.9 µM | SF-268 8.45 µM | PC-3 13.2 µM | LOX IMVI 2.69 µM | NCI-H226 10.5 µM | SW-620 5.21 µM | K562 2.37 µM | UACC-62 5.04 µM | MDA-MB-435 8.47 µM | MCF7 4.03 µM | OVCAR-4 6.95 µM | DMS-114 7.35 µM | OVCAR-3 6.28 µM | CAKI-1 7.13 µM | UACC-257 13.1 µM | HOP-92 14.9 µM | A549 13.6 µM | KM-20L2 18.7 µM | HT-29 6.65 µM | OVCAR-5 17.8 µM | UO-31 10.5 µM | CCRF-CEM 2.81 µM | DU-145 10.9 µM | SK-MEL-28 11.1 µM | MDA-MB-231 14 µM | Hs-578T 14.5 µM | EKVX 13.6 µM | NCI-H522 15 µM | SF-295 9.48 µM | LXFL 529 10.3 µM | HCC 2998 11.2 µM | SNB-19 11 µM | SK-MEL-2 12.6 µM | SK-MEL-5 8.49 µM | IGROV-1 7.71 µM | T47D 12.7 µM
